Here are results for 6 molecules from ChEMBL document CHEMBL1124285, “Conformational analysis and structural comparisons of (1R,3S)-(+)- and (1S,3R)-(-)-tefludazine, (S)-(+)- and (R)-(-)-octoclothepin, and (+)-dexclamol in relation to dopamine receptor antagonism and amine-uptake inhibition” (J Med Chem, 1988).

Assay [1] has as its target D(2) dopamine receptor (Rattus norvegicus, UniProt P61169). Put plainly: Binding affinity against Dopamine receptor D2 using [3H]spiroperidol.
The species named for assay [2] is Rattus norvegicus. Nature of the assay: Inhibition of [3H]norepinephrine uptake in rat brain synaptosomes. It counts as functional, organism-based.
The species named for assay [3] is Rattus norvegicus. Put plainly: Inhibition of [3H]-dopamine uptake in rat brain synaptosomes. It counts as functional, organism-based.

Sequence of D(2) dopamine receptor (P61169 whole entry): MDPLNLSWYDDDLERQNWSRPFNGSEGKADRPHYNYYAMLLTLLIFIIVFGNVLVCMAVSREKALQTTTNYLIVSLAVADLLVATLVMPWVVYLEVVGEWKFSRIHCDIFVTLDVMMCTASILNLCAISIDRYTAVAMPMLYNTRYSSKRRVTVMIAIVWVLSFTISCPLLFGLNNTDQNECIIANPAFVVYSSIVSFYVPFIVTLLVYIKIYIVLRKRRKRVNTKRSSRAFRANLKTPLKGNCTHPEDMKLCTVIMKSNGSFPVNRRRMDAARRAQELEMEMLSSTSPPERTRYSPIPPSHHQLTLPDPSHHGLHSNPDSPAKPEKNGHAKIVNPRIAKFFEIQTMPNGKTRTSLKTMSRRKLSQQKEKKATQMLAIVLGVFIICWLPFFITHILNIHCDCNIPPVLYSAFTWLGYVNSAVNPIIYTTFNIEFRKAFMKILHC

For `OCCN1CCN([C@H]2C[C@H](c3ccc(F)cc3)c3ccc(C(F)(F)F)cc32)CC1`, the IC50 (commonly the concentration that inhibits the measured activity by half) in assay [1] was determined as 590 nM; in assay [2] (Rattus norvegicus, Brain, 3 h) it was 730 nM; in assay [3] (Rattus norvegicus, Brain, 3 h), 130 nM.
Turning to `CN1CCN(C2Cc3ccccc3Sc3ccc(Cl)cc32)CC1` (racemic) [CLOROTEPINE], the concentration for half-maximal inhibition (IC50) in assay [2] (Rattus norvegicus, Brain, 3 h) worked out at 0.64 nM; in assay [3] (Rattus norvegicus, Brain, 3 h), 6300 nM.
Regarding (-)-BUTACLAMOL, the results for the IC50 in assay [2] and in assay [3] were 7400 nM and 9500 nM, respectively.
In assay [1], `CC(C)[C@]1(O)CCN2C[C@H]3c4ccccc4CCc4cccc(c43)[C@@H]2C1` showed an IC50 of 6 nM.
On the same count and under the same terms, then `CC(C)[C@@]1(O)CCN2C[C@@H]3c4ccccc4CCc4cccc(c43)[C@H]2C1` [DEXCLAMOL], with 900 nM.
In the case of `OCCN1CCN([C@@H]2C[C@@H](c3ccc(F)cc3)c3ccc(C(F)(F)F)cc32)CC1` [TEFLUDAZINE], the IC50 came to 14 nM in assay [1]; 15000 nM in assay [2] (Rattus norvegicus, Brain, 3 h); 2200 nM in assay [3] (Rattus norvegicus, Brain, 3 h).
